Measured values: patent publication US7514429B2, “Benzoxazinone-derived compounds, their preparation and use as medicaments” (ESTEVE Laboratorios Dr. Esteve S.A., priority 2002, dated 2009)
Counter-ions that a name gives are not always drawn.

Assays:
Neuropeptide Y2 = target: T1, Neuropeptide Y2 (Rattus norvegicus, UniProt Q9ERC0); experiment: Binding to Neuropeptide Y2, Method (III), rat hypoccampus membranes; conditions: [125I]-PYY(3-36)
T1 construct: their brains are rapidly removed and the hypoccampus is dissected; from tissue; host or cells: rat hippocampus membranes (male Wistar rats)
T1 sequence (Q9ERC0 1-381): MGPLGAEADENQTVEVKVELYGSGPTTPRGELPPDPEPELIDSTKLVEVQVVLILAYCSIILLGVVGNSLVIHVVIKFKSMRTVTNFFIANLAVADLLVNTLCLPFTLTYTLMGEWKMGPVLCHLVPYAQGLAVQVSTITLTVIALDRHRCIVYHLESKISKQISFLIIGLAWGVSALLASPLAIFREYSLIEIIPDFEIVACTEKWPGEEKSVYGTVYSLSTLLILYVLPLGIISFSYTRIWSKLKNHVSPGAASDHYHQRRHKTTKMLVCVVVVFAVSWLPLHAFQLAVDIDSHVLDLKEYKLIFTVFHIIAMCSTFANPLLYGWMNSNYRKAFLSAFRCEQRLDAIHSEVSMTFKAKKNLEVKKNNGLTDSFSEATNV
Protocol: Binding to Neuropeptide Y2
Said literature description is herewith incorporated by reference and forms part of the disclosure.
Male Wistar rats are sacrificed by decapitation, their brains are rapidly removed and the hypoccampus is dissected. Homogenization is performed in cold conditions in the buffer: 120 mM NaCl, 4.7 mM KCl, 2.2 mM CaCl2, 1.2 mM KH2PO4, 1.2 mM MgSO4, 25 mM NaHCO3, 5.5 mM glucose, pH 7.4, by means of a Ultra-Turrax homogenizer for 15 seconds at 13,500 rpm. The ratio between fresh tissue weight and buffer volume is of ten times. The membrane is centrifuged for 10 min at 48,000 g. The supernatant is discarded and the pellet is washed, resuspended and recentrifuged two more times. The final membrane resuspension is performed in the buffer: 120 mM NaCl, 4.7 mM KCl, 2.2 mM CaCl2, 1.2 mM KH2PO4, 1.2 mM MgSO4, 25 mM NaHCO3, 5.5 mM glucose, 0.1% BSA, 0.05% bacitracin, pH 7.4, at a 90 ml/g ratio of fresh issue. […] Incubation volume: 500 μl. […] The filters are cold-washed three times with three milliliters of the same buffer used in homogenization. […] Non-specific binding is determined in the presence of 1 μM of pNPY (Neuropeptide Y of porcine origin). The assays are performed in triplicate.

rats = experiment: Nocturnal feeding (food intake measurement); assay type: in vivo, rat; conditions: vs. control group
Protocol: Behavioural Models (Food Intake Measurements)
In both test, animals rats (Male W, 200-270 g, obtained from Harlan, S. A) were used. The rats are acclimatized to the animal facility for at least 5 days before being subjected to any experimental procedure. During this period, animals were housed in groups of five in translucid cages and provided with food and water ad libitum. At least 24 hours before the tests, animals are adapted to single-housing conditions.
Food intake is measured in home cages in order to minimize non-specific stress effects on food intake resulting from changes in housing conditions. Food and water is available ad libitum. Immediately before lights turn off, rats are weighed, randomized and dosed (orally or intraperitoneally), either with vehicle or selected benzoxacine-compounds of general formula (I). Thereafter, rats are returned to home cages and food left on top covers is measured. Remaining food and animal's weight is measured next morning.
The above mentioned methods are described in Ants Kask et al., Europan Journal of Pharmacology 414 (2001) 215-224 and Turnbull et al., Diabetes, Vol. 51, August 2002, which are hereby incorporated by reference and form part of the disclosure.

rat Y5 receptor = target: T2, rat Y5 receptor (Rattus norvegicus, UniProt Q63634); experiment: Neuropeptide Y5 receptor binding, Method (II), C6 cells transfected with the rat Y5 receptor; conditions: [125I]-PYY, Y5 rat recombinant receptor, cell C6
T2 construct: expressed in transfected cells; host or cells: C6 cells
T2 sequence (Q63634 1-445): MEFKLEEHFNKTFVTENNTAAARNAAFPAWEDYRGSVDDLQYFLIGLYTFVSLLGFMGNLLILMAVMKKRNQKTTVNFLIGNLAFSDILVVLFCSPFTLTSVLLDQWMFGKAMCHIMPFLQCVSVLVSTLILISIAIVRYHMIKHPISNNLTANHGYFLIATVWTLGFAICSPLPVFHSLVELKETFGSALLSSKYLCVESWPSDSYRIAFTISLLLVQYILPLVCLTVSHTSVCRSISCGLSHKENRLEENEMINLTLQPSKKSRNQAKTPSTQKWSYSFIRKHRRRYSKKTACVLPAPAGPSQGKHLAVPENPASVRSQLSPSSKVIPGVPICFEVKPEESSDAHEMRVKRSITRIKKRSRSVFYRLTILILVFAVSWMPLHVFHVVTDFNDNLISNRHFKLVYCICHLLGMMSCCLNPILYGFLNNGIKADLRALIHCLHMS
Protocol: Neuropeptide Y5 Receptor Binding Studies:
The methods used for membrane preparation and binding are similar to those described by Y. Hu, B. T. Bloomquist et al. in Y. Hu, B. T. Bloomquist et al., The Journal of Biological Chemistry, 1996, 271, 26315-26319 with modifications. Said literature description is herewith incorporated by reference and forms part of the disclosure. Cells C6 were transfected with the rat Y5 receptor. The cells were grown under standard culture conditions in 150 cm^2 dishes and they were harvested using a rubber scraper and 10 ml PBS. The cells from five dishes were collected and centrifuged 2.500 g for 5 min (4° C). The pellet was washed by resuspending in 3 ml buffer (Tris-HCl 10 mM, pH 7.4), homogenized using a Potter S homogenizer, 10 strokes at 600 rpm and centrifuged 48.000 g for 20 min (4° C.). The pellet was resuspended in 8 ml membrane buffer (Tris-HCl 25 mM, NaCl 120 mM, KCl 5 mM, KH2PO4 1.2 mM, CaCl2 2.5 mM, MgSO4 1.2 mM, BSA 0.15 mg/ml, Bacitracine 0.5 mg/ml, pH 7.4) and rehomogenized using the Potter S, 10 strokes at 600 rpm. The protein concentration in the incubation was 40 μg/ml. The radioligand was [^125I]-PYY (100 pM) in a total incubation volume of 200 μl. Following incubation at 25° C. for 2 h, the reaction was stopped by addition of 5 ml ice-cold buffer (Tris-HCl 25 mM, NaCl 120 mM, KCl 5 mM, KH2PO4 1.2 mM, CaCl2 2.5 mM, MgSO4 1.2 mM, pH 7.4) and rapid filtration in a Harvester Brandell Cell using filters (Schleicher & Schuell G F 3362) pretreated for two hours with 0.5% polyethyleneimine. Filters were washed one time with 5 ml ice-cold buffer. The filters were placed into plastic scintilation vials and 5 ml scintilation cocktail Ecoscint H were added. The quantity of radioactivity present was determined in a Wallac Winspectral 1414 counter. Non specific binding was determined in the presence of 1 μM de pNPY. All binding assays were done in triplicate.

SMILES: Cc1cccc2c1N(C1CCN(CC(=O)Nc3ccc4c(c3)-c3ccccc3C4=O)CC1)C(=O)OC2 (as salt: HCl) [Example 35, 2-[4-(8-Methyl-2-oxo-4H-benzo[d][1,3]oxazin-1-yl)-piperidin-1-yl]-N-(9-oxo-9H-fluoren-3-yl)-acetamide hydrochloride]
- melting point: 233 to 236 °C

SMILES: O=C(CN1CCC(N2C(=O)OCc3ccccc32)CC1)Nc1ccc2c(c1)-c1ccccc1C2=O [Example 3, 2-[4-(2-oxo-4H-benzo[d][1,3]oxazin-1-yl)-piperidin-1-yl]-N-(9-oxo-9H-fluoren-3-yl)-acetamide hydrochloride]
- Ki (Neuropeptide Y2): > 1000 nM

SMILES: CCn1c2ccccc2c2cc(NC(=O)CN3CCC(N4C(=O)OCc5ccccc54)CC3)ccc21 [Example 18, N-(9-Ethyl-9H-carbazol-3-yl)-2-[4-(2-oxo-4H-benzo[d][1,3]oxazin-1-yl)-piperidin-1-yl]-acetamide hydrochloride]
- Effect: body weight of treated animals (rats; 40 mg/kg i.p. administration): reduces body weight of
- Effect: food intake (rats; 40 mg/kg i.p. administration): Decreases food intake and

SMILES: Cc1ccc2c(c1)COC(=O)N2C1CCN(CC(=O)Nc2ccc3c(c2)-c2ccccc2C3=O)CC1 [Example 20, 2-[4-(6-methyl-2-oxo-4H-benzo[d][1,3]oxazin-1-yl)-piperidin-1-yl]-N-(9-oxo-9H-fluoren-3-yl)-acetamide hydrochloride]
- Ki (Neuropeptide Y2): > 1000 nM
- Effect: body weight of treated animals (rats; 40 mg/kg i.p. administration): reduces body weight of
- Effect: food intake (rats; 40 mg/kg i.p. administration): Decreases food intake and

SMILES: Cc1cccc2c1N(C1CCN(CC(=O)Nc3ccc4c(c3)-c3ccccc3C4=O)CC1)C(=O)OC2 [Example 35, 2-[4-(8-Methyl-2-oxo-4H-benzo[d][1,3]oxazin-1-yl)-piperidin-1-yl]-N-(9-oxo-9H-fluoren-3-yl)-acetamide hydrochloride]
- Effect: body weight of treated animals (rats; 20 mg/kg i.p. administration): reduces body weight of
- Effect: food intake (rats; 20 mg/kg i.p. administration): Decreases food intake and

SMILES: COc1cccc2c1COC(=O)N2C1CCN(CC(=O)Nc2ccc3sc4ccccc4c3c2)CC1 [Example 107, N-Dibenzothiophene-2-yl-2-[4-(5-methoxy-2-oxo-4H-benzo[d][1,3]oxazin-1-yl)-piperidin-1-yl]-acetamide]
- IC50 (rat Y5 receptor): 23.5 nM

SMILES: Cc1nc2cc(NC(=O)CN3CCC(N4C(=O)OCc5cc(F)ccc54)CC3)ccc2s1 [Example 114, 2-[4-(6-Fluoro-2-oxo-4H-benzo[d][1,3]oxazin-1-yl)-piperidin-1-yl]-N-(2-methyl-benzothiazole-5-yl)-acetamide]
- IC50 (rat Y5 receptor): 40.7 nM

SMILES: COc1ccc2c(c1)COC(=O)N2C1CCN(CC(=O)Nc2ccc3sc(C)nc3c2)CC1 [Example 116, 2-[4-(6-Methoxy-2-oxo-4H-benzo[d][1,3]oxazin-1-yl)-piperidin-1-yl]-N-(2-methyl-benzothiazole-5-yl)-acetamide]
- IC50 (rat Y5 receptor): 106 nM
